Data as given in patent US4192871A, “Chemical compounds” (Glaxo Laboratories Limited, priority 1976, dated 1980).

Legend:
[1] = dissolution of the 11β-aminoester salts in aqueous acid (Table 5 and Examples 101, 225-229); type: physicochemical
Procedure, shortened: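 11β-Aminoester free base combined with 1 molar part of acid (citric acid as monohydrate) in water, with extra acid or prior ethanol co-evaporation in some methods. Solution made up to set weight, undissolved base collected and weighed to calculate dissolved amount. Solution pH measured.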

pH of the salt solutions = type: physicochemical; conditions: aqueous solution of the salt, Table 5
Procedure, shortened: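 Aminoester free base mixed with 1 molar part acid in water, stirred or shaken, with extra acid or ethanol evaporation in some methods, then made up with water to set weight. Undissolved base collected and weighed to calculate dissolved base; solution membrane-filtered and pH measured.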

[2] = method A: clear solution, 1 molar part acid, made up with water to WT. of solution 10 g, except Ex. 121 and 150: 12, 123: 12.3, 124: 7.5, 129: 10.3, 135 and 139: 8.95, 164: 10.35, 170: 10.4, 181: 10.04, 187: 9.5, 210: 10.2, 221: 15 g
[3] = method C: ethanol evaporated, residue in water, undissolved material weighed, WT. of solution Ex. 118: 10, 120: 10.4, 148: 9.54, 152: 5.6, 154: 9.1, 155: 8.77, 156: 9.06, 157: 9.5, 158: 9.38, 159: 9.17, 179: 9.65, 180: 11.7, 182: 4.9, 202: 12.05, 213: 12, 214: 11.5, 215: 11.1, 216: 11.6, 217: 12.1 g
[4] = method B: further acid added, undissolved material weighed, WT. of solution 10 g, except Ex. 130 and 141: 9.2, 142: 9.23, 143, 144, 189 and 199: 9.8, 149: 10.6, 153: 7.9, 162 and 188: 9.5, 163: 68, 166: 10.4, 168: 10.7, 169: 10.9, 183: 8.05, 184 and 201: 9.83, 185: 7.1, 186: 9.3, 192: 10.07, 193: 6.4, 195: 6.8, 196: 7, 197: 7.2, 200: 10.1, 206: 15 g
[5] = method D: 1 molar part acid, undissolved material weighed, WT. of solution 10 g, except Ex. 136: 8.95, 140: 9.52, 165 and 167: 10.1, 190 and 198: 9.8, 191: 8.9, 194: 6.6, 204: 10.09, 219: 10.6 g
[6] = method E: as C with further acid, WT. of solution Ex. 160: 6.12, 161: 7.8, 203: 12.7, 212: 12.125, 220: 10 g

Row | SMILES | pH (pH of the salt solutions) | Dissolved aminoester [1, 4] | also measured
1 | CC(=O)[C@H]1CC[C@H]2[C@@H]3CC[C@H]4C[C@H](O)CC[C@]4(C)[C@H]3[C@@H](OC(=O)CCCN3CCC(C)CC3)C[C@]12C [Example 181] | 3.72 | – | Dissolved aminoester [1, 2]: 101 mg
2 | CCCCN(C)C(C)C(=O)O[C@H]1C[C@]2(C)[C@@H](C(C)=O)CC[C@H]2[C@@H]2CC[C@H]3C[C@H](O)CC[C@]3(C)[C@H]21 (some centres unmarked) [Example 182] | 3.43 | – | Dissolved aminoester [1, 3]: 49 mg
3 | CC(=O)[C@H]1CC[C@H]2[C@@H]3CC[C@H]4C[C@H](O)CC[C@]4(C)[C@H]3[C@@H](OC(=O)CN(C)C(C)C)C[C@]12C [Example 183] | 2.69 | 57.5 mg | –
4 | CCC(C)N(C)CC(=O)O[C@H]1C[C@]2(C)[C@@H](C(C)=O)CC[C@H]2[C@@H]2CC[C@H]3C[C@H](O)CC[C@]3(C)[C@H]21 (some centres unmarked) [Example 184] | 3.0 | 94.5 mg | –
5 | CCCCCN(C)CC(=O)O[C@H]1C[C@]2(C)[C@@H](C(C)=O)CC[C@H]2[C@@H]2CC[C@H]3C[C@H](O)CC[C@]3(C)[C@H]21 [Example 185] | 2.86 | 65.3 mg | –
6 | CCC(C)CN(C)CC(=O)O[C@H]1C[C@]2(C)[C@@H](C(C)=O)CC[C@H]2[C@@H]2CC[C@H]3C[C@H](O)CC[C@]3(C)[C@H]21 (some centres unmarked) [Example 186] | 2.85 | 75 mg | –
7 | CCCC(C)N(C)CC(=O)O[C@H]1C[C@]2(C)[C@@H](C(C)=O)CC[C@H]2[C@@H]2CC[C@H]3C[C@H](O)CC[C@]3(C)[C@H]21 (some centres unmarked) [Example 187] | 3.63 | – | Dissolved aminoester [1, 2]: 95 mg
8 | CC(=O)[C@H]1CC[C@H]2[C@@H]3CC[C@H]4C[C@H](O)CC[C@]4(C)[C@H]3[C@@H](OC(=O)CN(C)CC(C)(C)C)C[C@]12C [Example 188] | 2.58 | 31 mg | –
9 | CCCCCCN(C)CC(=O)O[C@H]1C[C@]2(C)[C@@H](C(C)=O)CC[C@H]2[C@@H]2CC[C@H]3C[C@H](O)CC[C@]3(C)[C@H]21 [Example 189] | 2.98 | 93 mg | –
10 | CC(=O)[C@H]1CC[C@H]2[C@@H]3CC[C@H]4C[C@H](O)CC[C@]4(C)[C@H]3[C@@H](OC(=O)CN(C)C(C)CC(C)C)C[C@]12C (some centres unmarked) [Example 190] | 3.43 | – | Dissolved aminoester [1, 5]: 86 mg
11 | C=CCN(C)CC(=O)O[C@H]1C[C@]2(C)[C@@H](C(C)=O)CC[C@H]2[C@@H]2CC[C@H]3C[C@H](O)CC[C@]3(C)[C@H]21 [Example 191] | 3.20 | – | Dissolved aminoester [1, 5]: 86.1 mg
12 | CC(=O)[C@H]1CC[C@H]2[C@@H]3CC[C@H]4C[C@H](O)CC[C@]4(C)[C@H]3[C@@H](OC(=O)CN(C)C(C)CCC(C)C)C[C@]12C (some centres unmarked) [Example 192] | 3.00 | 100.7 mg | –
13 | CC(=O)[C@H]1CC[C@H]2[C@@H]3CC[C@H]4C[C@H](O)CC[C@]4(C)[C@H]3[C@@H](OC(=O)CN(C)C3CC3)C[C@]12C [Example 193] | 2.46 | 23 mg | –
14 | CCN(CC(=O)O[C@H]1C[C@]2(C)[C@@H](C(C)=O)CC[C@H]2[C@@H]2CC[C@H]3C[C@H](O)CC[C@]3(C)[C@H]21)C(C)C [Example 194] | 3.56 | – | Dissolved aminoester [1, 5]: 57 mg
15 | CCN(CC(=O)O[C@H]1C[C@]2(C)[C@@H](C(C)=O)CC[C@H]2[C@@H]2CC[C@H]3C[C@H](O)CC[C@]3(C)[C@H]21)CC(C)C [Example 195] | 2.98 | 59 mg | –
16 | CCC(C)CN(CC)CC(=O)O[C@H]1C[C@]2(C)[C@@H](C(C)=O)CC[C@H]2[C@@H]2CC[C@H]3C[C@H](O)CC[C@]3(C)[C@H]21 (some centres unmarked) [Example 196] | 2.53 | 39 mg | –
17 | CCN(CC(=O)O[C@H]1C[C@]2(C)[C@@H](C(C)=O)CC[C@H]2[C@@H]2CC[C@H]3C[C@H](O)CC[C@]3(C)[C@H]21)C(C)CC(C)C (some centres unmarked) [Example 197] | 2.99 | 63 mg | –
18 | CC(=O)[C@H]1CC[C@H]2[C@@H]3CC[C@H]4C[C@H](O)CC[C@]4(C)[C@H]3[C@@H](OC(=O)CN(C)[C@H](C)CC(C)C)C[C@]12C [Example 198] | 3.62 | – | Dissolved aminoester [1, 5]: 90 mg
19 | CC(=O)[C@H]1CC[C@H]2[C@@H]3CC[C@H]4C[C@H](O)CC[C@]4(C)[C@H]3[C@@H](OC(=O)CN(C)[C@@H](C)CC(C)C)C[C@]12C [Example 199] | 3.12 | 88 mg | –

Row | SMILES | pH (pH of the salt solutions) | Dissolved aminoester [1, 4] | also measured
20 | CC(=O)[C@H]1CC[C@H]2[C@@H]3CC[C@H]4C[C@H](O)CC[C@]4(C)[C@H]3[C@@H](OC(=O)CCN(C)C(C)CC(C)C)C[C@]12C (some centres unmarked) [Example 200] | 3.2 | 83 mg | –
21 | CC(=O)[C@H]1CC[C@H]2[C@@H]3CC[C@H]4C[C@H](O)CC[C@]4(C)[C@H]3[C@@H](OC(=O)CN(C)C(C)(C)C)C[C@]12C [Example 201] | 3.12 | 98.3 mg | –
22 | CCN(CC)CC(=O)O[C@H]1C[C@]2(C)[C@@H](C(C)=O)CC[C@H]2[C@@H]2CC[C@H]3C[C@H](O)[C@@H](Cl)C[C@]3(C)[C@H]21 [Example 202] | 3.65 | – | Dissolved aminoester [1, 3]: 120.5 mg
23 | CC(=O)[C@H]1CC[C@H]2[C@@H]3CC[C@H]4C[C@H](O)[C@@H](Cl)C[C@]4(C)[C@H]3[C@@H](OC(=O)CN3CCC(C)CC3)C[C@]12C [Example 203] | 2.85 | – | Dissolved aminoester [1, 6]: 127 mg
24 | CCN(CC)CC(=O)O[C@H]1C[C@]2(C)[C@@H](C(C)=O)CC[C@H]2[C@@H]2CC[C@H]3C[C@H](O)[C@@H](SC#N)C[C@]3(C)[C@H]21 [Example 204] | 3.5 | – | Dissolved aminoester [1, 5]: 88.7 mg
25 | CCCCN(C)CC(=O)O[C@H]1C[C@]2(C)[C@@H](C#N)CC[C@H]2[C@@H]2CC[C@H]3C[C@H](O)CC[C@]3(C)[C@H]21 [Example 205] | 3.4 | – | Dissolved aminoester [1, 5]: 97 mg
26 | CCCN(CCC)CC(=O)O[C@H]1C[C@]2(C)[C@@H](C#N)CC[C@H]2[C@@H]2CC[C@H]3C[C@H](O)CC[C@]3(C)[C@H]21 [Example 206] | 2.7 | 84 mg | –
27 | CCCCN(C)CC(=O)O[C@H]1C[C@]2(C)[C@@H](C(C)=O)CC[C@H]2[C@@H]2CC[C@H]3C[C@H](O)[C@@H](Br)C[C@]3(C)[C@H]21 [Example 207] | 2.6 | 59 mg | –
28 | CCN(CC)CC(=O)O[C@H]1C[C@]2(C)[C@@H](C(C)=O)CC[C@H]2[C@@H]2CC[C@H]3C[C@H](O)[C@@H](Br)C[C@]3(C)[C@H]21 [Example 208] | 2.6 | 65 mg | –
29 | CCCN(CCC)CC(=O)O[C@H]1C[C@]2(C)[C@@H](C(=O)COC(C)=O)CC[C@H]2[C@@H]2CC[C@H]3C[C@H](O)CC[C@]3(C)[C@H]21 [Example 209] | 3.2 | – | Dissolved aminoester [1, 5]: 75 mg
30 | CCCN(CCC)CC(=O)O[C@H]1C[C@]2(C)[C@@H](C(=O)CO)CC[C@H]2[C@@H]2CC[C@H]3C[C@H](O)CC[C@]3(C)[C@H]21 [Example 210] | 3.7 | – | Dissolved aminoester [1, 2]: 100 mg
31 | CCN(CC)CC(=O)O[C@H]1C[C@]2(C)[C@@H](C(C)=O)CC[C@H]2[C@@H]2CC[C@H]3C[C@H](O)C=C[C@]3(C)[C@H]21 [Example 211] | 3.2 | – | Dissolved aminoester [1, 5]: 94 mg
32 | CCCN(CCC)CC(=O)O[C@H]1C[C@]2(C)[C@@H](C(C)=O)CC[C@H]2[C@@H]2CC[C@H]3C[C@H](O)CC[C@]3(C)[C@H]21 [Example 212] | 3.6 | – | Dissolved aminoester [1, 6]: 73 mg
33 | CCCN(CCC)CC(=O)O[C@H]1C[C@]2(C)[C@@H](C(C)=O)CC[C@H]2[C@@H]2CC[C@H]3C[C@H](O)CC[C@]3(C)[C@H]21 [Example 213] | 3.8 | – | Dissolved aminoester [1, 3]: 119 mg
34 | CCCN(CCC)CC(=O)O[C@H]1C[C@]2(C)[C@@H](C(C)=O)CC[C@H]2[C@@H]2CC[C@H]3C[C@H](O)CC[C@]3(C)[C@H]21 [Example 214] | 3.52 | – | Dissolved aminoester [1, 3]: 115 mg
35 | CCCN(CCC)CC(=O)O[C@H]1C[C@]2(C)[C@@H](C(C)=O)CC[C@H]2[C@@H]2CC[C@H]3C[C@H](O)CC[C@]3(C)[C@H]21 [Example 215] | 3.63 | – | Dissolved aminoester [1, 3]: 111 mg
36 | CCCN(CCC)CC(=O)O[C@H]1C[C@]2(C)[C@@H](C(C)=O)CC[C@H]2[C@@H]2CC[C@H]3C[C@H](O)CC[C@]3(C)[C@H]21 [Example 216] | 3.58 | – | Dissolved aminoester [1, 3]: 116 mg
37 | CCCN(CCC)CC(=O)O[C@H]1C[C@]2(C)[C@@H](C(C)=O)CC[C@H]2[C@@H]2CC[C@H]3C[C@H](O)CC[C@]3(C)[C@H]21 [Example 217] | 3.53 | – | Dissolved aminoester [1, 3]: 76 mg
